Reference: patent US11299473B2, “Benzimidazole and indole compounds and uses thereof” (Incyte Corporation, priority 2018, dated 2022)
pKi: −log10 of the molar value.

Biological target: active HPK1 (SignalChem M23-11G) (Homo sapiens (Human), UniProt Q92918)
Assay: HPK1 Kinase Binding Assay
Details: LanthaScreen tracer 222 / Eu-Anti GST antibody, one hour incubation at 25° C.
Protocol: A stock solution of 1 mM test compound was prepared in DMSO. The compound plate was prepared by 3-fold and 11-point serial dilutions. 0.1 μL of the compound in DMSO was transferred from the compound plate to the white 384 well polystyrene plates. The assay buffer contained 50 mM HEPES, pH 7.5, 0.01% Tween-20, 5 mM MgCl2, 0.01% BSA, and 5 mM DTT. 5 μL of 4 nM active HPK1 (SignalChem M23-11G) prepared in the buffer was added to the plate. The enzyme concentration given was based on the given stock concentration reported by the vender. 5 μl of 18 nM tracer 222 (ThermoFisher PV6121) and 4 nM LanthaScreen Eu-Anti GST antibody (ThermoFisher PV5595) were added. After one hour incubation at 25° C., the plates were read on a PHERAstar FS plate reader (BMG Labtech). Ki values were determined.

Sequence of active HPK1 (SignalChem M23-11G) (Q92918 1-346 limits assumed): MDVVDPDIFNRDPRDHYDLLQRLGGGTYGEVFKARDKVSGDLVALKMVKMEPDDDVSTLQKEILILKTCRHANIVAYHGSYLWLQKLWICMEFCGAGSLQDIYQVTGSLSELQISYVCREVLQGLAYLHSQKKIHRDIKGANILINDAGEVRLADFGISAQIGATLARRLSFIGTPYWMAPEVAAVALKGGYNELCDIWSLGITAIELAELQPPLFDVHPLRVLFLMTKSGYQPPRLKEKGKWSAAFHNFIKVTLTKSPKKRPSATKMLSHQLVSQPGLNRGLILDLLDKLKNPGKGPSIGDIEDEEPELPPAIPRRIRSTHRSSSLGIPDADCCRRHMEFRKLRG

With `COCCc1nc2c(N3CCC[C@H]3CN)c(NC(=O)c3ccnc(-c4c(F)cccc4OC)n3)ccc2n1C` [Example 26, (S)—N-(4-(2-(Aminomethyl)pyrrolidin-1-yl)-2-(2-methoxyethyl)-1-methyl-1H-benzo[d]imidazol-5-yl)-2-(2-fluoro-6-methoxyphenyl)pyrimidine-4-carboxamide] the pKi was ≥ 7.00.
For `COc1cccc(F)c1-c1nccc(C(=O)Nc2ccc3c(ncn3[C@@H]3CCOC3)c2N2CCC[C@H]2CN)n1` [Example 27, N-(4-((S)-2-(Aminomethyl)pyrrolidin-1-yl)-1-((R)-tetrahydrofuran-3-yl)-1H-benzo[d]imidazol-5-yl)-2-(2-fluoro-6-methoxyphenyl)pyrimidine-4-carboxamide], the pKi was ≥ 7.00.
With `COc1cccc(F)c1-c1nccc(C(=O)Nc2ccc3c(ncn3C)c2N2CCC[C@H]2CN)n1` [Example 28, (S)—N-(4-(2-(Aminomethyl)pyrrolidin-1-yl)-1-methyl-1H-benzo[d]imidazol-5-yl)-2-(2-fluoro-6-methoxyphenyl)pyrimidine-4-carboxamide] the pKi was ≥ 7.00.
With `COc1cccc(F)c1-c1nccc(C(=O)Nc2ccc3c(nc(C)n3Cc3ccncc3)c2N2CC[C@H](N)C2)n1` [Example 29, (S)—N-(4-(3-Aminopyrrolidin-1-yl)-2-methyl-1-(pyridin-4-ylmethyl)-1H-benzo[d]imidazol-5-yl)-2-(2-fluoro-6-methoxyphenyl)pyrimidine-4-carboxamide] the pKi was ≥ 7.00.
For `COc1cccc(F)c1-c1nccc(C(=O)Nc2ccc3c(nc(C)n3Cc3cnn(C)c3)c2N2CC[C@H](N)C2)n1` [Example 30, (S)—N-(4-(3-Aminopyrrolidin-1-yl)-2-methyl-1-((1-methyl-1H-pyrazol-4-yl)methyl)-1H-benzo[d]imidazol-5-yl)-2-(2-fluoro-6-methoxyphenyl)pyrimidine-4-carboxamide], the pKi was ≥ 7.00.
`COc1cccc(F)c1-c1nccc(C(=O)Nc2ccc3c(nc(C)n3C)c2-c2ccccc2N)n1` [Example 31, N-(4-(2-Aminophenyl)-1,2-dimethyl-1H-benzo[d]imidazol-5-yl)-2-(2-fluoro-6-methoxyphenyl)pyrimidine-4-carboxamide] was tested, and the pKi was ≥ 7.00.
With `Cc1nc2c(N3CCC[C@H]3CN)c(NC(=O)c3ccnc(-c4c(F)cccc4F)n3)ccc2n1C` [Example 32, (S)—N-(4-(2-(Aminomethyl)pyrrolidin-1-yl)-1,2-dimethyl-1H-benzo[d]imidazol-5-yl)-2-(2,6-difluorophenyl)pyrimidine-4-carboxamide] the pKi was ≥ 7.00.
For `Cc1cccc(F)c1-c1nccc(C(=O)Nc2ccc3c(nc(C)n3C)c2N2CCC[C@H]2CN)n1` [Example 33, (S)—N-(4-(2-(Aminomethyl)pyrrolidin-1-yl)-1,2-dimethyl-1H-benzo[d]imidazol-5-yl)-2-(2-fluoro-6-methylphenyl)pyrimidine-4-carboxamide], the pKi was ≥ 7.00.
In the case of `COc1cccc(F)c1-c1nc(C(=O)Nc2ccc3c(nc(C)n3C)c2N2CCC[C@H]2CN)ccc1F` [Example 34, N-(4-((S)-2-(Aminomethyl)pyrrolidin-1-yl)-1,2-dimethyl-1H-benzo[d]imidazol-5-yl)-5-fluoro-6-(2-fluoro-6-methoxyphenyl)picolinamide], the pKi was ≥ 7.00.
In the case of `COc1cccc(F)c1-c1nccc(C(=O)Nc2ccc3c(ccn3C)c2N2CCC[C@@H]2CN)n1` [Example 35, (R)—N-(4-(2-(Aminomethyl)pyrrolidin-1-yl)-1-methyl-1H-indol-5-yl)-2-(2-fluoro-6-methoxyphenyl)pyrimidine-4-carboxamide], the pKi was ≥ 7.00.
With `COc1cccc(F)c1-c1nccc(C(=O)Nc2ccc3c(ccn3C)c2N2C[C@@H](N)C[C@H]2CO)n1` [Example 36, N-(4-((2S,4S)-4-Amino-2-(hydroxymethyl)pyrrolidin-1-yl)-1-methyl-1H-indol-5-yl)-2-(2-fluoro-6-methoxyphenyl)pyrimidine-4-carboxamide] the pKi was ≥ 7.00.
In the case of `COc1cccc(F)c1-c1nccc(C(=O)Nc2ccc3c(ccn3C)c2N2CCNC[C@H]2C)n1` [Example 37, (R)-2-(2-Fluoro-6-methoxyphenyl)-N-(1-methyl-4-(2-methylpiperazin-1-yl)-1H-indol-5-yl)pyrimidine-4-carboxamide], the pKi was ≥ 7.00.
In the case of `COc1cccc(F)c1-c1nccc(C(=O)Nc2ccc3c(ccn3C)c2N2C[C@@H]3C[C@H]2CN3)n1` [Example 38, N-(4-((1S,4S)-2,5-Diazabicyclo[2.2.1]heptan-2-yl)-1-methyl-1H-indol-5-yl)-2-(2-fluoro-6-methoxyphenyl)pyrimidine-4-carboxamide], the pKi was ≥ 7.00.
In the case of `COc1cccc(F)c1-c1nccc(C(=O)Nc2ccc3c(ccn3Cc3ccncc3)c2N2C[C@@H]3C[C@H]2CN3)n1` [Example 39, N-(4-((1S,4S)-2,5-Diazabicyclo[2.2.1]heptan-2-yl)-1-(pyridin-4-ylmethyl)-1H-indol-5-yl)-2-(2-fluoro-6-methoxyphenyl)pyrimidine-4-carboxamide], the pKi was ≥ 7.00.
In the case of `COc1cccc(F)c1-c1nccc(C(=O)Nc2ccc3[nH]ccc3c2N2C[C@@H]3C[C@H]2CN3)n1` [Example 40, N-(4-((1S,4S)-2,5-Diazabicyclo[2.2.1]heptan-2-yl)-1H-indol-5-yl)-2-(2-fluoro-6-methoxyphenyl)pyrimidine-4-carboxamide], the pKi was ≥ 7.00.
For `COc1cccc(F)c1-c1nccc(C(=O)Nc2ccc3c(ccn3CC3CCCCO3)c2N2C[C@@H]3C[C@H]2CN3)n1` (stereo partly drawn) [Example 41, N-(4-((1S,4S)-2,5-Diazabicyclo[2.2.1]heptan-2-yl)-1-((tetrahydro-2H-pyran-2-yl)methyl)-1H-indol-5-yl)-2-(2-fluoro-6-methoxyphenyl)pyrimidine-4-carboxamide], the pKi was ≥ 7.00.
For `COc1cccc(F)c1-c1nccc(C(=O)Nc2ccc3c(ccn3Cc3cnc(C)s3)c2N2C[C@@H]3C[C@H]2CN3)n1` [Example 42, N-(4-((1S,4S)-2,5-Diazabicyclo[2.2.1]heptan-2-yl)-1-((2-methylthiazol-5-yl)methyl)-1H-indol-5-yl)-2-(2-fluoro-6-methoxyphenyl)pyrimidine-4-carboxamide], the pKi was ≥ 7.00.
In the case of `COc1cccc(F)c1-c1nccc(C(=O)Nc2ccc3c(ccn3CCN3CCOCC3)c2N2C[C@@H]3C[C@H]2CN3)n1` [Example 43, N-(4-((1S,4S)-2,5-Diazabicyclo[2.2.1]heptan-2-yl)-1-(2-morpholinoethyl)-1H-indol-5-yl)-2-(2-fluoro-6-methoxyphenyl)pyrimidine-4-carboxamide], the pKi was ≥ 7.00.
With `COc1cc(-n2ccc3c(N4C[C@@H]5C[C@H]4CN5)c(NC(=O)c4ccnc(-c5c(F)cccc5OC)n4)ccc32)ccn1` [Example 44, N-(4-((1S,4S)-2,5-Diazabicyclo[2.2.1]heptan-2-yl)-1-(2-methoxypyridin-4-yl)-1H-indol-5-yl)-2-(2-fluoro-6-methoxyphenyl)pyrimidine-4-carboxamide] the pKi was ≥ 7.00.
With `COc1ccc(-n2ccc3c(N4C[C@@H](N)C[C@H]4CO)c(NC(=O)c4ccnc(-c5c(F)cccc5OC)n4)ccc32)c(F)c1` [Example 45, N-(4-((2S,4S)-4-Amino-2-(hydroxymethyl)pyrrolidin-1-yl)-1-(2-fluoro-4-methoxyphenyl)-1H-indol-5-yl)-2-(2-fluoro-6-methoxyphenyl)pyrimidine-4-carboxamide] the pKi was ≥ 7.00.
In the case of `COc1cccc(F)c1-c1nccc(C(=O)Nc2ccc3c(ccn3-c3ccnn3C)c2N2C[C@@H](N)C[C@H]2CO)n1` [Example 46, N-(4-((2S,4S)-4-Amino-2-(hydroxymethyl)pyrrolidin-1-yl)-1-(1-methyl-1H-pyrazol-5-yl)-1H-indol-5-yl)-2-(2-fluoro-6-methoxyphenyl)pyrimidine-4-carboxamide], the pKi was ≥ 7.00.
For `COc1cccc(F)c1-c1nccc(C(=O)Nc2ccc3c(ccn3-c3cccc(F)c3C#N)c2N2C[C@@H](N)C[C@H]2CO)n1` [Example 47, N-(4-((2S,4S)-4-Amino-2-(hydroxymethyl)pyrrolidin-1-yl)-1-(2-cyano-3-fluorophenyl)-1H-indol-5-yl)-2-(2-fluoro-6-methoxyphenyl)pyrimidine-4-carboxamide], the pKi was ≥ 7.00.
